According to PubChem BioAssay (NCI):
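Compound exposure: 48 hours, 5 concentrations, 96-well plates. Abbreviation: GI50, concentration required for 50% inhibition of growth. The concentration for full growth arrest is given as TGI.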

Tests used:
Assay in all cases: NCI tumour cell line growth inhibition, 48 h
HT29 colon = tested on: HT29 colon
KM12 colon = tested on: KM12 colon
MALME-3M melanoma = tested on: MALME-3M melanoma
MDA-MB-231 breast = tested on: MDA-MB-231 breast
SK-OV-3 ovarian = tested on: SK-OV-3 ovarian
UACC-257 melanoma = tested on: UACC-257 melanoma
UO-31 renal = tested on: UO-31 renal
ACHN renal = tested on: ACHN renal
HOP-62 NSCLC = tested on: HOP-62 NSCLC
UACC-62 melanoma = tested on: UACC-62 melanoma

Compound | TGI (HT29 colon) [µM] | TGI (KM12 colon) [µM] | TGI (MALME-3M melanoma) [µM] | TGI (MDA-MB-231 breast) [µM] | TGI (SK-OV-3 ovarian) [µM] | TGI (UACC-257 melanoma) [µM] | TGI (UO-31 renal) [µM] | TGI (ACHN renal) [µM] | TGI (HOP-62 NSCLC) [µM] | TGI (UACC-62 melanoma) [µM] | GI50 (ACHN renal) [µM] | GI50 (HT29 colon) [µM] | GI50 (KM12 colon) [µM] | GI50 (UACC-62 melanoma) [µM]
N#Cc1c(O)c(/C=N/c2ncccn2)c(=O)n2c1[nH]c1ccccc12 | > 100 | > 100 | > 100 | > 100 | > 100 | > 100 | > 100 | – | – | – | – | – | – | –
COc1cccc(C2c3cc4c(cc3OC(Nc3ccccc3)C2C)OCO4)c1OC (configuration not stated) | > 100 | > 100 | > 100 | > 100 | > 100 | 97.3 | > 100 | > 100 | > 100 | > 100 | – | – | – | –
CC[C@@]1(O)C(=O)OCc2c1cc1n(c2=O)Cc2c-1nc1ccccc1c2/C=N/NC(=O)c1ccc(N)cc1 | > 100 | > 75.9 | > 87.8 | > 100 | > 100 | > 100 | 25.6 | – | 1.61 | 1.94 | – | – | – | –
COc1ccccc1C1c2cc3c(cc2OC(N2CCOCC2)C1C)OCO3 (configuration not stated) | 40.9 | 39.6 | – | – | – | 36.9 | 42.8 | > 100 | 35.3 | 35.5 | – | – | – | –
CCOC(=O)c1c(NC(=S)Nc2ccccc2)sc2c1CCOC2 | > 100 | > 100 | > 100 | > 100 | > 100 | > 100 | > 100 | > 100 | > 100 | > 100 | – | – | – | –
NS(=O)(=O)c1ccc(/C=C/c2ccc(O)cc2)cc1 | 35.1 | 30 | 78.1 | 60.7 | 59.5 | > 100 | 36.2 | 7.75 | 82.9 | 20.4 | 2.28 | 17.8 | 11.1 | 3.4
COC(=O)CC1c2ccccc2N2C(=O)Cc3c([nH]c4ccccc34)C12 (configuration not stated) | > 100 | > 100 | > 100 | > 100 | > 100 | > 100 | > 100 | > 100 | > 100 | > 100 | – | – | – | –
O=C(CC(Cl)=C(Cl)Cl)c1ccccc1 | > 100 | > 100 | > 100 | > 100 | > 100 | 70 | > 100 | > 100 | > 100 | > 100 | – | – | – | –
COC(=O)CCC(NC(=O)OC(C)(C)C)C(=O)NC(Cc1ccc(NC(=O)CCCC(C)=O)cc1)C(=O)NC(CCC(=O)OC)C(=O)OC (configuration not stated) | > 100 | > 100 | > 100 | > 100 | > 100 | > 100 | > 100 | > 100 | > 100 | > 100 | – | – | – | –
c1ccc([I+]c2ccccc2)cc1 | > 100 | > 100 | > 100 | > 100 | > 100 | > 100 | > 100 | > 100 | > 100 | – | – | – | – | –
O=CN1CCN(C(=O)c2ccc(Cl)c(Cl)c2)C1=S | 38.4 | 30.3 | 39.1 | 30.8 | 32.9 | 31.7 | – | 31.6 | 32.9 | 30.4 | – | – | – | –
CC(C)Oc1c(-c2ccc(F)cc2)c(O)c2c3c1oc(=O)n3C=CC2C (configuration not stated) | 30.2 | 34.3 | 91.1 | 28.7 | > 100 | 26.3 | 25.5 | 27.6 | 28.6 | 29.4 | – | – | – | –
CC(C)N(C(C)C)S(=O)(=O)C[C@]12CC[C@H](CC13OCC(CS(=O)(=O)c1ccccc1)O3)C2(C)C (some centres not stated) | > 100 | > 100 | > 100 | > 100 | > 100 | > 80.3 | > 100 | > 100 | > 100 | > 100 | – | – | – | –
N#CNC(=NCCc1c[nH]c2ccccc12)Oc1ccccc1 | > 100 | > 100 | – | – | > 100 | > 100 | > 100 | > 100 | > 100 | > 100 | – | – | – | –
O=C(NNC(=O)c1csc(NC(=S)NC2CCCCC2)n1)c1ccccc1 | 21.3 | 28.8 | 43.2 | 30.8 | 34.2 | 27.8 | 28.3 | 43.9 | 32.5 | 23.9 | – | – | – | –
c1ccc2c(c1)OC(N1CCCC1)c1cnc(N3CCOCC3)nc1-2 (configuration not stated) | > 100 | > 100 | > 100 | > 100 | > 100 | 74.2 | 47.2 | > 100 | > 100 | > 100 | – | – | – | –
Cc1cnc2sn(-c3ccc(Br)cc3)c(=O)c2c1 | 75 | > 100 | 43.6 | > 100 | > 100 | > 100 | > 100 | > 100 | 81.5 | > 100 | – | – | – | –
CCOC(=O)C(Cl)(NC(=O)OCc1ccccc1)C(F)(F)F (configuration not stated) | > 100 | > 100 | > 100 | > 100 | > 100 | > 100 | > 100 | > 100 | > 100 | – | – | – | – | –
CC1C(C#N)(C#N)C(C#N)=C(N)C1(Cl)[N+](=O)[O-] (configuration not stated) | 23.5 | 34.4 | 18.7 | 26.9 | 32.6 | 24.5 | 29.4 | 23.7 | 9.72 | 24 | – | – | – | –
CCOC1CC(C)N(C(=O)c2ccccc2)O1 (configuration not stated) | > 100 | > 100 | – | > 100 | > 100 | – | > 100 | > 100 | > 100 | > 100 | – | – | – | –
COc1ccc(NC(=S)c2ccoc2C)cc1CC(=O)OC(C)C | 36.3 | > 100 | – | > 100 | > 100 | > 100 | > 100 | > 100 | – | > 100 | – | – | – | –
Cc1n(Cc2ccccc2)nc2sc(N)n[n+]12 | > 100 | > 100 | > 100 | – | > 100 | > 100 | > 100 | > 100 | > 100 | > 100 | – | – | – | –
